Test results as given in US20230364084A1, “METHODS FOR PREVENTING OR TREATING CONDITIONS RELATED TO PIKFYVE ACTIVITY” (The Regents of the University of Michigan, priority 2020, published 2023).

How the values were obtained:
[1] = system: Atg8; test: yeast autophagy detection (Atg8 immunoblot); type: cell-based; details: drug permeable yeast strain (prd5Δ), 3 μM, nitrogen deprivation
Method: The yeast strains used in this study were YAB499 (SEY6210, pho13Δ pho8Δ60, pdr5Δ::Kan). Protein extraction and immunoblot were performed as previously described^59. Antisera to Atg8 and Pgk1 (a generous gift from Dr. Jeremy Thorner, University of California, Berkeley) were used as previously described. Cells were treated with either 3 μM ESK981, 3 μM cabozantinib, or the equivalent amount of DMSO as control for the indicated times.

[2] = system: mouse embryonic fibroblast (MEF) cells; test: vacuolization and LC3 lipidation in Atg5 wild-type and knockout MEF cells; type: cell-based; details: 300 nM, 24 hours
[3] = system: castration-resistant VCaP tumors; test: castration-resistant VCaP xenograft mouse model; type: in vivo; details: 30 or 60 mg/kg
Method: (§1) Four- to six-week old male CB17 severe combined immunodeficiency (SCID) mice were procured from the University of Michigan breeding colony. Subcutaneous tumors were established at both sides of the dorsal flank of mice. Tumors were measured at least biweekly using digital calipers following the formula (π/6) (L×W2), where L=length and W=width of the tumor. At the end of the studies, mice were sacrificed and tumors extracted and weighed. The University of Michigan University Committee on the Use and Care of Animals (UCUCA) approved all in vivo studies. For the VCaP castration-resistant tumor model, 3×10^6 VCaP cells were injected subcutaneously into the dorsal flank on both sides of the mice in serum-free medium with 50% Matrigel (BD Biosciences). Once tumors reached a palpable stage (˜200 mm^3), tumor-bearing mice were castrated. Once tumors grew back to the pre-castration size, mice were randomized and treated with either 30 mg/kg, 60 mg/kg ESK981, or vehicle (ORA-PLUS) by oral gavage 5 days per week. For the DU145 xenograft tumor model, 1×10^6 DU145 cells were injected subcutaneously into the dorsal flank on both sides of the mice in serum-free medium with 50% Matrigel. When tumors reached ˜100 mm^3, tumor-bearing mice were randomized and treated with 30 mg/kg ESK981 or vehicle (ORA-PLUS) by oral gavage 5 days per week.

[4] = system: CXCL10 in VCaP cells; test: human CXCL10 ELISA of conditioned medium; type: cell-based; details: VCaP-conditioned medium, 300 nM, 24 hours
Method: Conditioned medium was collected after 24 hours of drug incubation. ELISA was performed using a human CXCL10 ELISA kit (Cat No. KAC2361, ThermoFisher), or a mouse CXCL10 ELISA kit (Cat No. ab214563, Abcam) according to the manufacturer's instructions.

[5] = system: DU145 tumors; test: DU145 xenograft tumor model; type: in vivo, mouse; details: 30 mg/kg
Method: as §1

[6] = system: Myc-CaP cells; test: long-term survival assay in Myc-CaP cells; type: cell-based, mouse
Method: Single cell suspensions were seeded into 96-well plates at a density of 1,000-30,000 cells per well. Long-term survival was determined after 14 days of drug incubation. Viable cells were fixed with 4% formaldehyde and subsequently stained with 1% crystal violet. IC50 was calculated using GraphPad Prism.

[7] = target: VEGFR-1 (FLT1) (Homo sapiens, UniProt P17948); details: cited from earlier work
Chain of VEGFR-1 (FLT1) (P17948 27-1338, species assumed): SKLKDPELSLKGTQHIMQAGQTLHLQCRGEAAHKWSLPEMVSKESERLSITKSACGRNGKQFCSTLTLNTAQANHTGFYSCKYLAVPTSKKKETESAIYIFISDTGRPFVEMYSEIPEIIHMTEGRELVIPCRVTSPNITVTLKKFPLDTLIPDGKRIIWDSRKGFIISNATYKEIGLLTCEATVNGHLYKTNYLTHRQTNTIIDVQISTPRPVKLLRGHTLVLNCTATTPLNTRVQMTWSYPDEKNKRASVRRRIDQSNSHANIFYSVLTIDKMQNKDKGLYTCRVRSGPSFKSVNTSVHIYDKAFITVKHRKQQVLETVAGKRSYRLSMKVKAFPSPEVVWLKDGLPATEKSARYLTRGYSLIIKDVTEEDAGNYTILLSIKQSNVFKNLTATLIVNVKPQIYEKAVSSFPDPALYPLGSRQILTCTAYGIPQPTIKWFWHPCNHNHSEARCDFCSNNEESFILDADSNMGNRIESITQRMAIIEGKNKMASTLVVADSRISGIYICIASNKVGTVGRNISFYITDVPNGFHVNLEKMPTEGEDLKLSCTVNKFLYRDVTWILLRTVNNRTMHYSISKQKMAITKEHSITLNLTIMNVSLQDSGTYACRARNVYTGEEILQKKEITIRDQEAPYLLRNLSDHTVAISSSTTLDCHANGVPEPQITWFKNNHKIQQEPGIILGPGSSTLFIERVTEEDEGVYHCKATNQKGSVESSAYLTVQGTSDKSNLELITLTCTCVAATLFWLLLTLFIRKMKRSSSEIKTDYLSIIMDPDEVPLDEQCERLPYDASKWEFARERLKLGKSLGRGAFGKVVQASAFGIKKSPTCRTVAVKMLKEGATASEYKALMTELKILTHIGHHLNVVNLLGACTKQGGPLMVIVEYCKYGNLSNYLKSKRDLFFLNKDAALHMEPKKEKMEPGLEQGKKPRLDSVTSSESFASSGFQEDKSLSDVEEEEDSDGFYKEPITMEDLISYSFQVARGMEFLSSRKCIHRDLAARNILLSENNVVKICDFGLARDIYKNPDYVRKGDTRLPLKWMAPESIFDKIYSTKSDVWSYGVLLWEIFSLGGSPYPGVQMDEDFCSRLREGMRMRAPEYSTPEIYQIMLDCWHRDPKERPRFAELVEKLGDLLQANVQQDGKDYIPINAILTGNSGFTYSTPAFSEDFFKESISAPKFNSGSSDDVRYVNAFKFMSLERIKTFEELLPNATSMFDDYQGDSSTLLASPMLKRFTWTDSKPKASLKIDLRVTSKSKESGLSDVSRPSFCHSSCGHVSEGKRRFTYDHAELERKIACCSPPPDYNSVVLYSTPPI

[8] = target: T1, PIK3CA (Homo sapiens, UniProt P42336); test: kinase dissociation constant analysis (KdELECT); type: binding; details: 11-point dose-response, duplicate
T1 construct: purchased DiscoveRX (KdELECT)
T1 sequence (P42336 whole entry): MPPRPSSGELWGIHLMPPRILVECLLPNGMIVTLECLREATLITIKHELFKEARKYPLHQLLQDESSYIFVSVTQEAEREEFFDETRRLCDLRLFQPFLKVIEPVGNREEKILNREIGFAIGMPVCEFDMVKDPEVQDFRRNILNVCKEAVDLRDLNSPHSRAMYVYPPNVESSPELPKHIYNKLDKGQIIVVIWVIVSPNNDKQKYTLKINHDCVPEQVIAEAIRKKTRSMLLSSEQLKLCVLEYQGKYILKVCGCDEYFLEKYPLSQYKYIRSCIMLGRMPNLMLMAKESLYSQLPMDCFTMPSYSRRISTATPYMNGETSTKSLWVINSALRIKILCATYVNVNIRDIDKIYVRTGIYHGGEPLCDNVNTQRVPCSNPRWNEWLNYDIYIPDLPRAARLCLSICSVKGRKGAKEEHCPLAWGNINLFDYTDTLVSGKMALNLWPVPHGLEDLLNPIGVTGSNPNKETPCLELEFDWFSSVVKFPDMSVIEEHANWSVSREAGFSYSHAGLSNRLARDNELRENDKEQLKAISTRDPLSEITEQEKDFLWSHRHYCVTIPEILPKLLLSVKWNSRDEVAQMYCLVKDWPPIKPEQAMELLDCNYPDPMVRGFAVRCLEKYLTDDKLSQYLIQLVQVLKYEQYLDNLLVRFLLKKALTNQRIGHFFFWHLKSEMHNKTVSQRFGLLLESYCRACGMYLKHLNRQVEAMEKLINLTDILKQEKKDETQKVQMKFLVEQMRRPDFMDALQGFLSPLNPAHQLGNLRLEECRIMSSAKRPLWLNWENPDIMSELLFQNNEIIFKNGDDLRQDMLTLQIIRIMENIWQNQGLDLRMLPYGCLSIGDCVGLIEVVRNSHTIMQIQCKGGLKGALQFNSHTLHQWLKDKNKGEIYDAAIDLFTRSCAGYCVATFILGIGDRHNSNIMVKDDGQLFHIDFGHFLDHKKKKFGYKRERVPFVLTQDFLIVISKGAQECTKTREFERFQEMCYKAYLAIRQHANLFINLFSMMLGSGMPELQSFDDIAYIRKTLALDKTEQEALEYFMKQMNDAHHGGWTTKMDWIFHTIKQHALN
Method: (§2) Quantitative binding constants (Kd) of ESK981 to PIKfyve, PIP5K1A, PIP5K1C, and PIK3CA were generated using KdELECT® platform (DiscoveRX). An 11-point dose-response of ESK981 (0.05-3000 nM) was used, and the experiment was performed in duplicate. Detailed information is described on the DiscoveRX website (www.discoverx.com).

[9] = target: T2, PIP5K1A (Homo sapiens, UniProt Q99755); test: kinase dissociation constant analysis (KdELECT); type: binding; details: 11-point dose-response, duplicate
T2 construct: purchased DiscoveRX (KdELECT)
T2 sequence (Q99755 whole entry): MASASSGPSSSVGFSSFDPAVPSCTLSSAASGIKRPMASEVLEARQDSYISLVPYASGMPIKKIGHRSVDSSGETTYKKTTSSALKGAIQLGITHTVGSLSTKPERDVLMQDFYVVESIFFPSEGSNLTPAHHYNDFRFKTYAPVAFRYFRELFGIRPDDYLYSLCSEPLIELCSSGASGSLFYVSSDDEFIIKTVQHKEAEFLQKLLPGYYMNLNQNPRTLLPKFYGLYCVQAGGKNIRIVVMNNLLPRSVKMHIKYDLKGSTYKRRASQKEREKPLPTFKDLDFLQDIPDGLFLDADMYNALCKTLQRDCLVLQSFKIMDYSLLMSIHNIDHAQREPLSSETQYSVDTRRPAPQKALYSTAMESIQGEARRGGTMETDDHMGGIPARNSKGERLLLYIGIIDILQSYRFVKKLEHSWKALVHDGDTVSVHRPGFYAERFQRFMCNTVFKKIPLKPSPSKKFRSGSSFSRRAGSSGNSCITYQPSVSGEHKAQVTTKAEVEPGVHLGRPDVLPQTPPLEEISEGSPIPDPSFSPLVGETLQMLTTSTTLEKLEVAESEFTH
Method: as §2

[10] = target: T3, PIP5K1C (Homo sapiens, UniProt O60331); test: kinase dissociation constant analysis (KdELECT); type: binding; details: 11-point dose-response, duplicate
T3 construct: purchased DiscoveRX (KdELECT)
T3 sequence (O60331 whole entry): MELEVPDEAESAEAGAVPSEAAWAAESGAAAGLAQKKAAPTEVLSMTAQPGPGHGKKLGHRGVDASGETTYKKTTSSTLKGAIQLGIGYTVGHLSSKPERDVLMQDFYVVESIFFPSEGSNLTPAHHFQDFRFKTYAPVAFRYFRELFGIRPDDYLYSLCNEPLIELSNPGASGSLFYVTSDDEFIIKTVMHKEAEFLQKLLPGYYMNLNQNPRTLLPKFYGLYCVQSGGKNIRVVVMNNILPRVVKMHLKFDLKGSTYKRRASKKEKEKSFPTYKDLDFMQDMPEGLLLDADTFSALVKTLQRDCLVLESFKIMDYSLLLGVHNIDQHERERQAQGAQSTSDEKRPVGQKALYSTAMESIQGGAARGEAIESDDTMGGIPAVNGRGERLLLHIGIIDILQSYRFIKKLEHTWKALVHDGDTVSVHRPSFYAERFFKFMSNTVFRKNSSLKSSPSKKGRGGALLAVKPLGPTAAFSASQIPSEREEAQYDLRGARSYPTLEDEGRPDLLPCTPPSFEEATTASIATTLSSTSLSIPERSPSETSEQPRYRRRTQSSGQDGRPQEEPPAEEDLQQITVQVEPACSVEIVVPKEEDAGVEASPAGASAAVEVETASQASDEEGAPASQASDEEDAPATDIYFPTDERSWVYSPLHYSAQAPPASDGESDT
Method: as §2

[11] = system: GFP-LC3-RFP-LC3ΔG-expressing Myc-CaP cells; test: autophagic flux detection in Myc-CaP cells; type: cell-based, mouse; details: 24 hours
Method: For autophagic flux detection, 10,000 cells were plated in 96-well plates and incubated with various compounds in complete medium for 24 hours. GFP and RFP fluorescence intensities were measured on a TECAN M1000 plate reader.

[12] = system: autophagosomes in LNCaP, VCaP and DU145 cells; test: CYTO-ID autophagosome detection; type: cell-based, human; details: 24 hours
Method: 10,000 cells were plated in 96-well plates and incubated with 300 nM of the various compounds for 24 hours. Autophagy activities were detected with CYTO-ID® Autophagy detection kit (Cat No. ENZ-KIT175, Enzo Life Science) according to the manufacturer's instructions, with fluorescence intensity measured on a TECAN M1000 plate reader. Autophagosome induction factor was calculated according to the manufacturer's instructions.

[13] = system: MDA-PCa-146-12 AR-positive PDX; test: MDA-PCa-146-12 patient-derived xenograft; type: in vivo, mouse; details: 30 mg/kg
Method: The University of Texas M.D. Anderson Cancer Center (MDACC) patient-derived xenografts (PDX) series has been previously described^62-64. PDXs were derived from men with CRPC undergoing palliative resections using described protocols^65,66. MDA-PCa-146-12 and 146-10 PDX were derived from a patient initially diagnosed with Gleason 3+4=7 prostate adenocarcinoma with an initial PSA of 10.7 ng/ml. […] PDXs were maintained in male SCID mice by surgically implanting 2 mm^3 tumors coated with 100% Matrigel to both flanks of mice. Once tumors reached 100-200 mm^3 in size, mice were randomized and divided into different treatment groups receiving either 30 mg/kg ESK981 or vehicle (ORA-PLUS) by oral gavage 5 days per week.

[14] = system: invasive prostate cancer cell lines; test: Matrigel invasion assay; type: cell-based, human; details: four invasive prostate cancer cell lines, 24-hour incubation
Method: 2-5×10^5 cells were seeded onto 8-μm Matrigel-coated fluoroblok transwells with serum-free medium and various concentrations of ESK981. Medium containing 10% FBS in the lower chamber served as a chemoattractant. After 24-hour incubation, invaded cells were stained with […] at 37° C., and fluorescence intensity was quantified with a TECAN M1000 plate reader.

[15] = oral gavage 5 days per week, SCID mice

**Q.** For `CC(C)Cn1c2ccc(Nc3ncccn3)cc2c2c3c(c4c(c21)CCc1nn(C)cc1-4)C(=O)NC3` [ESK981, 13-isobutyl-4-methyl-10-(pyrimidin-2-ylamino)-1,2,4,7,8,13-hexahydro-6H-indazolo[5,4-a]pyrrolo[3,4-c]carbazol-6-one], which “lipidated Atg8” value [1] is on record?
**A.** increase in lipidated Atg8

**Q.** What about the LC3 lipidation ([2]; Atg5 knockout MEFs) of the same molecule?
**A.** abolished

**Q.** And the vacuolization ([2]; autophagy-deficient Atg5−/− MEFs)?
**A.** largely attenuated

**Q.** What about the vacuolization ([2]; wild-type MEF cells) of the same molecule?
**A.** significantly induced

**Q.** What about the “cell proliferation by Ki67 IHC” value ([3]; five days of treatment) of the same molecule?
**A.** dose-dependent reductions

**Q.** And the tumor weights ([3]; oral gavage)?
**A.** dose-dependent reductions

**Q.** And the “tumor growth of VCaP xenografts” value ([3]; oral gavage, castrated SCID mice, vs vehicle)?
**A.** significant dose-dependent growth inhibiton

**Q.** And the “rank in inducing CXCL10 levels among compound libraries” value [4]?
**A.** ranked first in inducing CXCL10 levels in the tyrosine kinase inhibitor library and second in the autophagy-linked compound library

**Q.** And the tumor weights [5]?
**A.** significant decreases in tumor weights

**Q.** And the tumor growth [5, 15]?
**A.** Significant inhibition of tumor growth

**Q.** And the “efficacy compared with crizotinib and cabozantinib” value [6]?
**A.** most efficacious compound

**Q.** What about the IC50 ([6]; Mus musculus, read-out: growth inhibitory IC50) of the same molecule?
**A.** 35 nM

**Q.** And the activity against kinase [7]?
**A.** potent activity

**Q.** What about the Kd [8] of the same molecule?
**A.** > 10000 nM

**Q.** What about the Kd [9] of the same molecule?
**A.** 230 nM

**Q.** And the Kd [10]?
**A.** 210 nM

**Q.** What about the autophagic flux [11] of the same molecule?
**A.** inhibited

**Q.** What about the “rank in autophagosome induction among compound libraries” value ([12]; DU145 cells, 300 nM, vs 154 autophagy-related compounds and 167 tyrosine kinase inhibitors) of the same molecule?
**A.** highest potency at inducing autophagosome levels

**Q.** What about the “autophagosome signals (CYTO-ID fluorescence intensity)” value ([12]; LNCaP, VCaP and DU145 cells, increasing concentrations) of the same molecule?
**A.** dose-dependent induction of autophagosome signals

**Q.** What about the “level of autophagosome induction compared with rapamycin” value ([12]; VCaP and LNCaP cells) of the same molecule?
**A.** higher than a known autophagy activator, the mTOR inhibitor rapamycin

**Q.** And the tumor weights [13]?
**A.** significant decreases in tumor weights

**Q.** And the tumor growth [13, 15]?
**A.** Significant inhibition of tumor growth

**Q.** And the invasion [14]?
**A.** inhibited invasion in a dose-dependent manner
